Entries after “also recorded” stand apart in the source; their conditions may differ.
Experiments:
[1] = test system: parkinsonian macaque model (MPP+); conditions: clinical; cited from earlier work
[2] = test system: parkinsonian macaque model (MPP+); assay: Parkinsonian symptoms in MPP+ macaques (PD score, locomotion, EMG tremor, motor skill, dyskinesia score)
Description: Parkinsonian conditions in macaque monkeys were established by unilaterally injecting 1-Methyl-4-phenylpyridinium (MPP+) into the SNc (FIG. 14). […] Drug injections were performed in five sites covering the whole SNc. A total volume of 10 ul MPP+ was injected into SNc at a speed of 50 nL/min. Monkeys were continuously monitored by veterinarians after lesion.
Two experienced observers blindly evaluated parkinsonian symptoms of the monkeys three days per week throughout the observation periods. Parkinsonian symptoms were quantified according to the well-established Kurlan scale (Part I. Parkinsonian features), a widely used scale to quantify PD symptoms in old world monkeys. A score of zero indicates a normal monkey, whereas a maximum score of 29 indicates an animal with severe PD symptoms. For separate behavioral categories, scoring of the upper limb and the lower limb were added together. Additionally, action or intention tremors and resting tremors were added together.
Two experienced observers blindly evaluated dyskinesia symptoms of the monkeys three days per week throughout the observation periods. Dyskinesia score criteria were: 0: Absent. 1: Mild, fleeting, present <30% of the observation period. 2: Moderate, not interfering with normal activity, present >30% of the observation period. 3: Marked, at times interfering with normal activity; present <70% of the observation period.4: Severe, continuous, replacing normal activity, present >70% of the observation.
For parkinsonian monkeys, DCZ (Deschloroclozapine, 0.3 mg/kg, MCE) was administered via intramuscular injection. After DCZ was successfully infused, monkeys were immediately transferred to the observation cage for video recording. […] For long-term DCZ treatment, parkinsonian monkeys were given DCZ at a dose of 0.3 mg/kg every other day via intramuscular injection. […] One month of washout was allowed before administration of DCZ for a 2 months treatment.
A grasp-to-eat/hand-to-mouth movement test was conducted as an indication of motor skills in monkeys. Monkeys were first trained to sit in a primate chair with the healthy hand restricted. Monkeys were then trained to grasp food (a piece of apple, ˜1 cm3) using the MPP+-affected hand from the experimenter. The task contained three blocks, with 20-minute intervals between different blocks. Each block included ten continuous trials. Trials were defined as successful when monkeys were able to bring food to their mouth within a minute.
During video recording, a top (x/y) and a side (x/z) camera were used to record the observation cage. The VigiePrimate system (Viewpoint) was used to analyze the subject's activity and extract movement data from the recorded videos. The tracking data were synchronously sampled at 25 Hz for both top view and side view, and then combined to generate one dataset representing the 3D space. The tracking data were normalized to 0-100 cm for all x-, y-, and z-axes, of which x represents right to left, y represents front to back, and z represents bottom to top.
Customized surface EMG electrodes were used for EMG recordings.

SMILES: N[C@@H](Cc1ccc(O)c(O)c1)C(=O)O [L-Dopa, levodopa]
- standard efficacy window [1]: 6 h
- dyskinesia-like behaviors (dyskinesia score) ([2]; long-term treatment): evident; also recorded: pronounced
- effect of 4 months prior L-Dopa administration on DCZ treatment ([2]; one month washout): did not affect the efficacy of DCZ treatment or the absence of dyskinesia

From patent US20250382588A1, “CHIMERIC AAV AND USES THEREOF” (priority 2023, published 2025)
